In patent US20240092761A1, “QUINAZOLINE COMPOUNDS AND METHODS OF USE” (IAMBIC THERAPEUTICS, INC., priority 2022, published 2024):

Columns and labels:
[1] = biological target: CDK1/Cyclin B1 (Homo sapiens (Human), UniProt P06493); assay: CDK1/Cyclin B1 ADP-Glo Kinase Assay; type: biochemical; conditions: 80 uM ATP
Protocol: CDK1/Cyclin B1 ADP-Glo Kinase Assay
(§1) The purpose of CDK1/Cyclin B1 assay is to evaluate the inhibition (% inhibition and IC50 values) of small molecule inhibitors by using a Luminescent based ADP-Glo assay. CDK1/Cyclin B1 catalyzes the production of ADP from ATP. ADP-Glo assay monitors ADP producing biochemical reactions. ADP-Glo is performed in 2 steps upon completion of kinase reaction: a combined termination of kinase reaction and depletion of remaining ATP in the first step, and conversion of generated ADP to ATP and the newly produced ATP to light output using luciferase/luciferin reaction in the second step. The luminescent signal generated is proportional to the ADP concentration produced and is correlated with the kinase activity. CDK1/Cyclin B1 was purchased from Carna (Cat 04-102). Typical reaction solutions (10 uL final reaction volume) contained 2% DMSO (f inhibitor), 10 mM MgCl2, 1 mM EGTA, 0.05% BSA, 2 mM DTT, 80 uM ATP (ATP Km=78.6 uM), 0.01% Brig-35, 0.75 uM substrate, and 4.917 nM CDK1/Cyclin Bl enzyme complex in 50 mM HEPES buffer at pH 7.5. The assay was initiated with the addition of ATP-containing substrate solution, following a 30-minute pre-incubation of enzyme and inhibitor at room temperature in the reaction mixture. The reaction was stopped after 90 minutes at room temperature by the addition of 10 uL of ADP-GLO Reagent. After a 90 minute incubation, 20 uL of Kinase Detection Reagent was added. Samples were incubated for 40 minutes, after which plate well luminescence was measured on a Envision microplate reader. The IC50 determinations were made from a plot of the fractional velocity as a function of inhibitor concentration fit to the 4 parameters IC50 equation.

[2] = biological target: CDK2/Cyclin E1 full length (Homo sapiens (Human), UniProt P24941); assay: CDK2/Cyclin E1 Full Length ADP-Glo Kinase Assay; type: biochemical; conditions: 20 uM ATP, read-out: CDK2/ CyclinE1 IC50
Protocol: CDK2/Cyclin E1 Full Length ADP-Glo Kinase Assay
The purpose of CDK2/Cyclin E1 assay is to evaluate the inhibition (% inhibition and IC50 values) of small molecule inhibitors by using a Luminescent based ADP-Glo assay. CDK2/Cyclin E1 full length catalyzes the production of ADP from ATP. ADP-Glo assay monitors ADP producing biochemical reactions. ADP-Glo is performed in 2 steps upon completion of kinase reaction: a combined termination of kinase reaction and depletion of remaining ATP in the first step, and conversion of generated ADP to ATP and the newly produced ATP to light output using luciferase/luciferin reaction in the second step. The luminescent signal generated is proportional to the ADP concentration produced and is correlated with the kinase activity. CDK2/Cyclin E1 was purchased from Eurofins (Cat 14-475M). Typical reaction solutions (10 uL final reaction volume) contained 2% DMSO (f inhibitor), 10 mM MgCI2, 1 mM EGTA, 0.05% BSA, 2 mM DTT, 20 uM ATP (ATP Km=64.78 uM), 0.01% Brig-35, 0.75 uM substrate, and 0.328 nM wild-type full length CDK2/Cyclin E1 enzyme complex in 50 mM HEPES buffer at pH 7.5. The assay was initiated with the addition of ATP-containing substrate solution, following a 30-minute pre-incubation of enzyme and inhibitor at room temperature in the reaction mixture. The reaction was stopped after 90 minutes at room temperature by the addition of 10 uL of ADP-GLO Reagent. After a 90 minute incubation, 20 uL of Kinase Detection Reagent was added. Samples were incubated for 40 minutes, after which plate well luminescence was measured on a Envision microplate reader. The IC50 determinations were made from a plot of the fractional velocity as a function of inhibitor concentration fit to the 4 parameters IC50 equation.

[3] = biological target: CDK4/Cyclin D1 (Homo sapiens (Human), UniProt P11802); assay: CDK4/Cyclin D1 CHEF Assay (AQT0258 peptide); type: biochemical; conditions: 200 uM ATP, read-out: CDK4/ CyclinD1 AQT IC50
From the text: CDK4/Cyclin D1 CHEF Assay
The purpose of CDK4/Cyclin Dl assay is to evaluate the inhibition (% inhibition and IC50 values) of small molecule inhibitors by using a Chelation-Enhance Fluorescence (CHEF) assay. In a CHEF assay, phosphorylation of a peptide substrate results in proportional increase in fluorescence. CHEF kinase assay use peptide substrates containing a synthetic alpha-amino acid with a side chain bearing an 8-hydroxyquinoline derivative (sulfonamido-oxide, Sox). Upon phosphorylation of a nearby serine, threonine or tyrosine and in the presence of Mg(II), the spectral properties of the Sox residue are altered, emitting 485 nm wavelength light when excited with a 360 nm wavelength light source. CDK4/Cyclin D1 catalyzes the phosphoryl transfer to the SOX-labeled substrate peptide AQT0258 from Assayquant Technologies. Typical reaction solutions contained 2% DMSO (+/−inhibitor), 10 mM MgCl2, 1 mM DTT, 200 uM ATP (ATP Km=195.2 uM), 0.012% Brig-35, 10 uM AQT0258 peptide, 0.02% BSA, 1% Glycerol, 0.55 mM EGTA, 2.5 nM CDK4/Cyclin D1 in 54 mM HEPES buffer at pH 7.5. The reaction was initiated with the addition of substrate solution, following a 30-minute pre-incubation of enzyme and inhibitor at 22° C. in the reaction mix. Reactions were allowed to proceed for 3 hrs at 22° C., followed by fluorescence read of the reaction. The IC50 determinations were made from a plot of the fractional velocity as a function of inhibitor concentration fit to the 4 parameters IC50 equation.

[4] = biological target: CDK6/Cyclin D3 (Homo sapiens (Human), UniProt Q00534); assay: CDK6/Cyclin D3 ADP-Glo Kinase Assay; type: biochemical; conditions: 100 uM ATP, read-out: CDK6/ CyclinD3 IC50
Protocol: CDK6/Cyclin D3 ADP-Glo Kinase Assay
as §1, with “of the CDK6/Cyclin D3” for “of CDK1/Cyclin B1”, “values) in the presence” for “values)”, “assay. CDK6/Cyclin D3” for “assay. CDK1/Cyclin B1”, “activity. CDK6/Cyclin D3” for “activity. CDK1/Cyclin B1”, “from Carna. […]” for “from Carna (Cat 04-102). Typical reaction solutions (10 uL final reaction volume) contained 2% DMSO (f inhibitor), 10 mM MgCl2, 1 mM EGTA, 0.05% BSA, 2 mM DTT, 80 uM ATP (ATP Km=78.6 uM), 0.01% Brig-35, 0.75 uM substrate, and 4.917 nM CDK1/Cyclin Bl enzyme complex in 50 mM HEPES buffer at pH 7.5.”, “a 90-minute” for “a 90 minute”

[5] = test system: MCF-7 cells; assay: Cell Growth Inhibition, MCF-7 (CellTiterGlo, 6 days); type: cell-based; conditions: MCF-7, 6-day treatment, CellTiterGlo 2.0
From the text: (§2) MCF-7 and OVCAR-3 cells were used to evaluate the anti-proliferation activity of the CDK inhibitors. MCF-7 (ATCC, HTB-22) cells are epithelial cells from a patient with ER+ metastatic adenocarcinoma. OVCAR-3 (ATCC, HTB-161) cells were derived from malignant ascites of a patient with ovarian cancer and are known to have CCNE1 amplification. Both cell lines were maintained in RPMI media supplemented with 10% fetal bovine serum. For cell growth inhibition assay, CDK inhibitors in DMSO solution were dispensed with either Echo 655 (Beckman Coulter) or Tecan D300e (HP) into 384-well plates (Corning #3765) and the 384-well plates were UV-sterilized prior to the assay. The inhibitors were typically tested in the 10-10,000 nM concentration range with half-log serial dilutions. MCF-7 or OVCAR-3 (500 cells/30 μL/well) were added to each well using Multidrop Combi (ThermoFisher) using standard cassettes. The assay plates with cells were cultured at 37° C., 5% CO2 for 6 days. At the end of the 6-day treatment, 30 μL of CellTiterGlo 2.0 (Promega) was added to each well and the luminescent signal was read using CLARIOstar plus (BMG). The percentage of cell growth inhibition (% CGI) was calculated using the following formula % CGI=100−100×luminescencesample/luminescencecontrol. The half maximal inhibitory concentration (IC50) was determined by nonlinear curve fitting (four parameters, variable slope).

[6] = test system: OVCAR-3 cells; assay: Cell Growth Inhibition, OVCAR-3 (CellTiterGlo, 6 days); type: cell-based; conditions: OVCAR-3, 6-day treatment, CellTiterGlo 2.0
From the text: as §2

Sequence of CDK1/Cyclin B1 (P06493 whole entry): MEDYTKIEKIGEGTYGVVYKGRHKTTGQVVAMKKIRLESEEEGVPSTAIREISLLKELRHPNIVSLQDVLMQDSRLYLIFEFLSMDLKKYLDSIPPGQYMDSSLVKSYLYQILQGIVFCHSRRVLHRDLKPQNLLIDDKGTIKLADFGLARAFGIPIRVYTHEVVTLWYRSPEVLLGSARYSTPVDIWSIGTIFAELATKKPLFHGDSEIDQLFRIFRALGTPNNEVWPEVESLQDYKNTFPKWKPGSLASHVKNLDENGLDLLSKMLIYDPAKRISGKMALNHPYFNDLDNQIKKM
Sequence of CDK1/Cyclin B1 (P14635 whole entry partner): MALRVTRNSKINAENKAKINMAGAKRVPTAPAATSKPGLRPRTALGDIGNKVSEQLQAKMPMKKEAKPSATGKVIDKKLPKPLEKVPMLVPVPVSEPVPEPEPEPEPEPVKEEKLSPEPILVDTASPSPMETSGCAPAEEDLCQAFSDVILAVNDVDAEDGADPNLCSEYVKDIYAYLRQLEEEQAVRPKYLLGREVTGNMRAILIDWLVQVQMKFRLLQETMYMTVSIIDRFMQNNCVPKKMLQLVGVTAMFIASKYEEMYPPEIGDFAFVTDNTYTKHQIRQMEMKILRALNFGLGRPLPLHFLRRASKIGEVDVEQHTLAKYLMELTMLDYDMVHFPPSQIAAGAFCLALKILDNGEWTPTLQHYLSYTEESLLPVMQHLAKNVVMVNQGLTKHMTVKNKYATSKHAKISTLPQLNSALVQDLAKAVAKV
Sequence of CDK6/Cyclin D3 (Q00534 whole entry): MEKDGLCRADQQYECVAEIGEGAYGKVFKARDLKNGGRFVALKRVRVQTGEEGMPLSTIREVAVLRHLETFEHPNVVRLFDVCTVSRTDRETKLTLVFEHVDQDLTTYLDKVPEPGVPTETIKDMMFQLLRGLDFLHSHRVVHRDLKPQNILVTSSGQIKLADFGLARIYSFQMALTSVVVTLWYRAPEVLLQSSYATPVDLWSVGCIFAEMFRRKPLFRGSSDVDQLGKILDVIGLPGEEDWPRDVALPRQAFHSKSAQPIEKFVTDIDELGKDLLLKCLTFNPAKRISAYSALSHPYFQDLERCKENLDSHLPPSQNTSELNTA
Sequence of CDK6/Cyclin D3 (P30281 whole entry partner): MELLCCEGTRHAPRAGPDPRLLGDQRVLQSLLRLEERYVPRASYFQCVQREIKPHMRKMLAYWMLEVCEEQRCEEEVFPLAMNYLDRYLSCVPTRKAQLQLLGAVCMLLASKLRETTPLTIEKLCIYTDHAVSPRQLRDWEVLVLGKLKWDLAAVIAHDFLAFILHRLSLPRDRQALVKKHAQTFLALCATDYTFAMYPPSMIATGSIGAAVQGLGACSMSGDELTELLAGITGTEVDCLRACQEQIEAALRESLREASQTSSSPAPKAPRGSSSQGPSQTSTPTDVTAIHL
Sequence of CDK4/Cyclin D1 (P11802 whole entry): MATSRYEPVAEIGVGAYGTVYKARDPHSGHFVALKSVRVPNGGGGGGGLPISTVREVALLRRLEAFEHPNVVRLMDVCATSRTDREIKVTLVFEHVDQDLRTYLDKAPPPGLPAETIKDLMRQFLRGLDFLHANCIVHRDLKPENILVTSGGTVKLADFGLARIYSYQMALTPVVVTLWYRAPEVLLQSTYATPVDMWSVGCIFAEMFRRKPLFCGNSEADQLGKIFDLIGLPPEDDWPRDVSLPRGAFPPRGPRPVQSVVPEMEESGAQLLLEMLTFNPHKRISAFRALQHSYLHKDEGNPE
Sequence of CDK4/Cyclin D1 (P24385 whole entry partner): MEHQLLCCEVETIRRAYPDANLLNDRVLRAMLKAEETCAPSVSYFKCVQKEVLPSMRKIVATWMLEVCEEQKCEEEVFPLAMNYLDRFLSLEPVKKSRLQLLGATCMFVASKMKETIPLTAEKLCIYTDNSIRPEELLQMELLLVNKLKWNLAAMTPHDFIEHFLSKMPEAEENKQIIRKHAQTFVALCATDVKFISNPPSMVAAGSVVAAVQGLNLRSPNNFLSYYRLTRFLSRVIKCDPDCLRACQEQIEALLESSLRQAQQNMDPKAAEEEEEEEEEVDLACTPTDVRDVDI

Row | IC50 [1] [nM] | IC50 [2] [nM] | IC50 [3] [nM] | IC50 [4] [nM] | IC50 ([5]; Homo sapiens, MCF7, 144 h) [nM] | IC50 ([6]; Homo sapiens, 144 h) [nM] | IC50 [5] [nM] | IC50 [6] [nM] | Structure (SMILES)
1 | < 200 | < 200 | < 200 | 200 to 500 | 500 to 2000 | 500 to 2000 | – | – | FC(F)c1cc(N2CC3(CCNC3)C2)c2nc(NC3CCN(c4ncc(C5CC5)cn4)CC3)ncc2c1 [Example 68, N-(1-(5-cyclopropylpyrimidin-2-yl)piperidin-4-yl)-6-(difluoromethyl)-8-(2,6-diazaspiro[3.4]octan-2-yl)quinazolin-2-amine]
2 | 200 to 500 | < 200 | < 200 | < 200 | 200 to 500 | 500 to 2000 | – | – | CS(=O)(=O)N1CCC(Nc2ncc3cc(C(F)F)cc(N4CC5(C4)CN(C4CC4)C5)c3n2)CC1 [Example 69, 8-(6-cyclopropyl-2,6-diazaspiro[3.3]heptan-2-yl)-6-(difluoromethyl)-N-(1-(methylsulfonyl)piperidin-4-yl)quinazolin-2-amine]
3 | < 200 | < 200 | < 200 | < 200 | 200 to 500 | 200 to 500 | – | – | CS(=O)(=O)N1CCC(Nc2ncc3cc(C(F)F)cc(C4CC5(CCNC5)C4)c3n2)CC1 (stereo not drawn) [Example 70, 6-(difluoromethyl)-N-(1-(methylsulfonyl)piperidin-4-yl)-8-(6-azaspiro[3.4]octan-2-yl)quinazolin-2-amine]
4 | > 2000 | 200 to 500 | < 200 | 500 to 2000 | 500 to 2000 | 500 to 2000 | – | – | CN1CC2(CCN(c3cc(C(F)F)cc4cnc(NC5CCN(c6ncc7ccn(C8CC8)c7n6)CC5)nc34)C2)C1 [Example 71, N-(1-(7-cyclopropyl-7H-pyrrolo[2,3-d]pyrimidin-2-yl)piperidin-4-yl)-6-(difluoromethyl)-8-(2-methyl-2,6-diazaspiro[3.4]octan-6-yl)quinazolin-2-amine]
5 | < 200 | < 200 | < 200 | < 200 | 500 to 2000 | > 2000 | – | – | CS(=O)(=O)N1Cc2ccc(Nc3ncc4cc(C(F)F)cc(N5CC6(C5)CN(C5CC5)C6)c4n3)cc2C1 [Example 72, 8-(6-cyclopropyl-2,6-diazaspiro[3.3]heptan-2-yl)-6-(difluoromethyl)-N-(2-(methylsulfonyl)isoindolin-5-yl)quinazolin-2-amine]
6 | < 200 | < 200 | < 200 | < 200 | – | – | 200 to 500 | 500 to 2000 | CN1CC2(CCN(c3cc(C(F)F)cc4cnc(Nc5ccc6c(c5)CN(S(C)(=O)=O)C6)nc34)C2)C1 [Example 73, 6-(difluoromethyl)-8-(2-methyl-2,6-diazaspiro[3.4]octan-6-yl)-(methylsulfonyl)N-(2-isoindolin-5-yl)quinazolin-2amine]
7 | < 200 | < 200 | < 200 | < 200 | 200 to 500 | 200 to 500 | – | – | O=S(=O)(C1CC1)N1CCC(Nc2ncc3cc(C(F)F)cc(N4CC5(CCNC5)C4)c3n2)CC1 [Example 74, N-(1-(cyclopropylsulfonyl)piperidin-4-yl)-6-(difluoromethyl)-8-(2,6-diazaspiro[3.4]octan-2-yl)quinazolin-2-amine]
8 | < 200 | < 200 | < 200 | < 200 | 500 to 2000 | 500 to 2000 | – | – | Cn1ncc2cc(Nc3ncc4cc(C(F)F)cc(N5CC6(CCNC6)C5)c4n3)ccc21 [Example 75, 6-(difluoromethyl)-N-(1-methyl-1H-indazol-5-yl)-8-(2,6-diazaspiro[3.4]octan-2-yl)quinazolin-2-amine]
9 | 500 to 2000 | < 200 | < 200 | < 200 | 500 to 2000 | 500 to 2000 | – | – | COCCN1CC2(C1)CN(c1cc(C(F)F)cc3cnc(NC4CCN(S(=O)(=O)C5CC5)CC4)nc13)C2 [Example 76, N-(1-(cyclopropylsulfonyl)piperidin-4-yl)-6-(difluoromethyl)-8-(6-(2-methoxyethyl)-2,6-diazaspiro[3.3]heptan-2-yl)quinazolin-2-amine]
